# In US7534793B2, “Aminopiperidine quinolines and their azaisosteric analogues with antibacterial activity” (priority 2003, dated 2009):
# Where a name gives a salt, the structure may show the parent alone.
# Experiment: MIC of test compounds against various organisms
# Assay type: cell-based
# Conditions: not given
row,Structure (SMILES),MIC
1,"COc1ccc2nccc([C@@H](O)CN3CCC(NCc4cc5cccc(O)c5c(=O)[nH]4)CC3)c2c1 [Example 622, (R)-2-{4-[(8-Hydroxy-1-oxo-1,2-dihydro-isoquinolin-3-ylmethyl)-amino]-piperidin-1-yl}-1-(6-methoxyquinolin-4-yl)-ethanol trihydrochloride]",≤ 0.125 µg/mL
2,"COc1ccc2nccc([C@@H](O)CN3CCC(N(CC(=O)O)Cc4cc5cccnc5n4CC(=O)O)CC3)c2c1 [Example 625, (R)-1-(6-Methoxy-quinolin-4-yl)-2-{4-[carboxymethyl-(1-carboxymethyl-1H-pyrrolo[2,3-b]pyridine-2-ylmethyl)-amino]-piperidin-1-yl}-ethanol dihydrochloride]",≤ 32 µg/mL
3,"COc1ccc2nccc([C@@H](O)CN3CCC(NCc4cc5cccnc5n4CC(=O)O)CC3)c2c1 [Example 624, (R)-1-(6-Methoxy-quinolin-4-yl)-2-{4-[(1-carboxymethyl-1H-pyrrolo[2,3-b]pyridine-2-ylmethyl)-amino]-piperidin-1-yl}-ethanol trihydrochloride]",≤ 32 µg/mL

# Same assay, conditions: against one or more of the above range of gram positive and gram negative bacteria; read-out: MIC
row,MIC,Structure (SMILES)
1,≤ 32 µg/mL,"COc1ccc2nc(CNC3CCN(C[C@H](O)c4ccnc5ccc(OC)cc45)CC3)sc2c1 [Example 11, (R)-2-{4-[(6-Methoxy-benzothiazol-2-ylmethyl)-amino]-piperidin-1-yl}-1-(6-methoxy-quinolin-4-yl)-ethanol, dioxalate]"
2,≤ 2 µg/mL,"COc1ccc2nccc(NC(=O)N3CCC(NCc4nc5c(F)cc(F)cc5[nH]4)CC3)c2n1 [Example 403, 4-[(4,6-Difluoro-1H-benzimidazol-2-ylmethyl)-amino]-piperidine-1-carboxylic acid (6-methoxy-[1,5]naphthyridin-4-yl)-amide, oxalate]"
3,≤ 32 µg/mL,"COc1cc(F)c2nccc(NC(=O)N3CCC(NCc4cnc5c(O)cccc5n4)CC3)c2c1F [Example 620, 4-[(5-Hydroxy-quinoxalin-2-ylmethyl)amino]-piperidine-1-carboxylic acid (5,8-difluoro-6-methoxy-quinolin-4-yl)-amide oxalate]"
4,≤ 2 µg/mL,"COc1ccc2nccc([C@@H](O)CN3CCC(NCc4nc5cc(F)c(F)cc5[nH]4)CC3)c2c1.O=C(O)C(=O)O.O=C(O)C(=O)O [Example 14, (R)-2-{4-[(5,6-Difluoro-1H-benzimidazol-2-ylmethyl)-amino]-piperidin-1-yl}-1-(6-methoxyquinolin-4-yl)-ethanol, dioxalate]"
5,≤ 2 µg/mL,"COc1ccc2nccc(NC(=O)N3CCC(NCc4cc5ccccc5[nH]4)CC3)c2c1 [Example 406, 4-[(1H-Indol-2-ylmethyl)-amino]-piperidine-1-carboxylic acid (6-methoxy-quinolin-4-yl)amide, oxalate]"
6,≤ 32 µg/mL,"COc1ccc2nccc([C@@H](O)CN3CCC(NCc4cc5cc(Br)ccc5[nH]4)CC3)c2c1 [Example 9, (R)-2-{4-[(5-Bromo-1 H-indol-2-ylmethyl)amino]-piperidin-1-yl}-1-(6-methoxy-quinolin-4-yl)-ethanol, dioxalate]"
7,≤ 2 µg/mL,"COc1ccc2nccc([C@@H](O)CN3CCC(NCc4cnc5scnc5c4)CC3)c2c1 [Example 623, (R)-1-(6-Methoxy-quinolin-4-yl)-2-{4-[(thiazolo[5,4-b]pyridin-6-ylmethyl)amino]-piperidin-1-yl}-ethanol dioxalate]"
